Measured values from patent US20140005163A1 (NOVARTIS AG, priority 2010, published 2014).
≈ marks a conversion by molar mass, not a printed value.

Columns and labels:
Solubility at pH 6.8 = format: physicochemical; details: pH 6.8, aqueous buffer, thermodynamic from solid; read-out: solubility
Summary of the method: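 Following the procedure of Zhou et al. (2007), compound solubility was determined at pH 6.8.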

[1] = Cellular CaCo2 permeability assay from apical to basal (A-B); format: in vitro ADME; details: human, Caco-2, read-out: Pe A-B (permeability)
Excerpt: The permeability in 10^−6 cm/s of compounds of formula (I) have been confirmed for selected example using a cellular CaCo2 permeability assay from apical to basal (A-B): […]

[2] = test system: PKB Ser473 phosphorylation in Rat1-myr-HA-p110 delta cells; experiment: Reverse protein array assay, PKB Ser473 phosphorylation in Rat1-myr-p110 delta cells; format: cell-based; details: read-out: p-PKB IC50
Summary of the method: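 Compound exposure lasted 30 min in Rat1 cells bearing membrane-targeted HA-p110 isoforms, using 8 serial concentrations. Arrayed lysates, each spotted at four dilutions, gave relative fluorescence signals for phospho-Ser473 PKB.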

PI3K gamma = biological target: T1, PI3K gamma (Homo sapiens, UniProt P48736); experiment: PI3K gamma kinase assay (Kinase-Glo luminescence); format: biochemical
T1 construct: His tag (C); made in house; host or cells: baculovirus (pVL1393); Tn5 or TiniPro insect cells; construct from Roger Williams lab, MRC LMB
T1 sequence (P48736 144-1102 limits assumed): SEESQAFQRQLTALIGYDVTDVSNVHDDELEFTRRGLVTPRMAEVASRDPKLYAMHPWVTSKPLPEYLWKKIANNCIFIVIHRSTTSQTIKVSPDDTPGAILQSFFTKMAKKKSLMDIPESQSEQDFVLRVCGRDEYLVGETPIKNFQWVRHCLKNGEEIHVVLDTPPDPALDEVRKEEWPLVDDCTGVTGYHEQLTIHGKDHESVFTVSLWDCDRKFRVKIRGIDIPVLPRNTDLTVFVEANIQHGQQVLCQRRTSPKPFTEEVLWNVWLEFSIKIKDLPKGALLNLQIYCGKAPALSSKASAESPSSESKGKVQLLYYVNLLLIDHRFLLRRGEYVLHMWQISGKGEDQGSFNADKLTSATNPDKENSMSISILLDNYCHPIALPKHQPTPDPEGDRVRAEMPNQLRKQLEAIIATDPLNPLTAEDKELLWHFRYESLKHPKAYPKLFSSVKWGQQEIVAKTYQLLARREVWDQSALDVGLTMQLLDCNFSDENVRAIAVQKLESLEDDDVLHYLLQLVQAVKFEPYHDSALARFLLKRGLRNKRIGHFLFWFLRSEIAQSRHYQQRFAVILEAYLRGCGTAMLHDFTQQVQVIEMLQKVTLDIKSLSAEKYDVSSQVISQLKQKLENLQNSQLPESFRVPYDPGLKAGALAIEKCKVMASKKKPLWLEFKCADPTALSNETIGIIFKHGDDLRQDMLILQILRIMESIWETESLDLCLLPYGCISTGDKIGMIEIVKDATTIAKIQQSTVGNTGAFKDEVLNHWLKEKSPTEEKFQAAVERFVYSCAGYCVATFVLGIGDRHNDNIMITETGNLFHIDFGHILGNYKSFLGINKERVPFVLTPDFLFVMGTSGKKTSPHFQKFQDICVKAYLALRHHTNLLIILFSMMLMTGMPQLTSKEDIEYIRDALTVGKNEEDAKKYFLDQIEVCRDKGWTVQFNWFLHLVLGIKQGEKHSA
Summary of the method: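 PI3Kγ (150 nM) reaction run 120 min at room temperature with phosphatidylinositol substrate (10 μg/mL) and ATP (1 μM) in Tris pH 7.5 buffer containing MgCl2, NaCl, CHAPS and DTT. Remaining ATP detected by Kinase-Glo luminescence; 8 concentrations per compound, IC50 from 4-parameter curve fitting.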

| solubility (Solubility at pH 6.8) | Papp A→B [1] | IC50 [2] | IC50 (PI3K gamma) | SMILES |
| --- | --- | --- | --- | --- |
| 7 µg/mL (≈ 14.8 µM) | 7.7 ×10⁻⁶ cm/s | 78 nM | 246 nM | COc1ccc(-c2ccc3ncc4c(c3c2)n(-c2cn(CC(=O)N(C)C)nc2C)c(=O)n4C)cn1 [Example 102, 2-{4-[8-(6-Methoxy-pyridin-3-yl)-3-methyl-2-oxo-2,3-dihydro-imidazo[4,5-c]quinolin-1-yl]-3-methyl-pyrazol-1-yl}-N,N-dimethyl-acetamide] |
| 4 µg/mL (≈ 9.33 µM) | 20.5 ×10⁻⁶ cm/s | 110 nM | 582 nM | CCn1cc(-n2c(=O)n(C)c3cnc4ccc(-c5ccc(COC)nc5)cc4c32)c(C)n1 [Example 104, 1-(1-Ethyl-3-methyl-1H-pyrazol-4-yl)-8-(6-methoxymethyl-pyridin-3-yl)-3-methyl-1,3-dihydro-imidazo[4,5-c]quinolin-2-one] |
| 410 µg/mL (≈ 959 µM) | 17 ×10⁻⁶ cm/s | < 5 nM | – | CCNc1cc(-c2ccc3ncc4c(c3c2)n(-c2cn(C)nc2C)c(=O)n4C)cnc1C [Example 87.1, 1-(1,3-Dimethyl-1H-pyrazol-4-yl)-8-(5-ethylamino-6-methyl-pyridin-3-yl)-3-methyl-1,3-dihydro-imidazo[4,5-c]quinolin-2-one] |
| > 469 µg/mL | 6 ×10⁻⁶ cm/s | 60 nM | – | Cc1nn(C)cc1-n1c(=O)n(C)c2cnc3ccc(-c4ccc(N5CCN(C)CC5)nc4)cc3c21 [Example 96, 1-(1,3-Dimethyl-1H-pyrazol-4-yl)-3-methyl-8-[6-(4-methyl-piperazin-1-yl)-pyridin-3-yl]-1,3-dihydro-imidazo[4,5-c]quinolin-2-one] |
